Assay [1] has as its target Protein Tat (Human immunodeficiency virus type 1 group M subtype B (isolate HXB2)(HIV-1), UniProt P04608). The format is functional.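 Note: tat binding to TAR RNA read out by fluorescence polarization.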
In assay [2] the target is Kallikrein-7 (Homo sapiens, UniProt P49862). In words: Fluorescence Intensity-based biochemical primary high throughput dose response assay to identify activators of kallikrein-7 (K7) zymogen.
Assay [3] has as its target T1, Oxysterols receptor LXR-beta (Homo sapiens, UniProt P55055).
T1 sequence (P55055 whole entry): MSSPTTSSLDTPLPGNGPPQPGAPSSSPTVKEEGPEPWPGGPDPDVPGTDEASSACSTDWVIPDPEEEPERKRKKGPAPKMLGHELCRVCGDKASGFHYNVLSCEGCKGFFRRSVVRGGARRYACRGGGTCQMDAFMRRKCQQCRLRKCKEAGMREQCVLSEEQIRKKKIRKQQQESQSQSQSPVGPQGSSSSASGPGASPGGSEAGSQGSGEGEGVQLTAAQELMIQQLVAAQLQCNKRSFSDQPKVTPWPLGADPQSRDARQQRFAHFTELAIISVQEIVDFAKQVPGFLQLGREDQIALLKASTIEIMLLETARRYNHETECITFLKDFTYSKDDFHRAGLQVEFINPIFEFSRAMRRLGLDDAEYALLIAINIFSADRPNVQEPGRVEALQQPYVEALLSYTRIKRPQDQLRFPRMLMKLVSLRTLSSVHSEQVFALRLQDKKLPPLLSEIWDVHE
Put plainly: LXR agonists, Gal4 luciferase reporter, dose response, counter-screen for ssDAF-12 agonist project, cell-based, luminescence, HEK293, S. stercoralis campaign (AID 720737). It counts as functional. The settings on record: read-out: IC50 (the source's name). For orientation: Reporter assays use an easily measured gene product as a stand-in for the process of interest.

A short description of assay [4]: Luminescence-based cell-based high throughput dose response assay to identify activators of the DAF-12 from the parasite S. stercoralis (ssDAF-12). The format is functional.
A short description of assay [5]: Luminescence Cell-Based Dose Response HTS to Identify Activators of Luciferase Translation or Activity in H4 […] Cells. [Related pubchem assays: 1829 (Project Summary), 1814 (Primary HTS)]. The format is functional.
Assay [6] addresses T2, Caspase-6 (Homo sapiens, UniProt P55212).
T2 sequence (P55212 whole entry): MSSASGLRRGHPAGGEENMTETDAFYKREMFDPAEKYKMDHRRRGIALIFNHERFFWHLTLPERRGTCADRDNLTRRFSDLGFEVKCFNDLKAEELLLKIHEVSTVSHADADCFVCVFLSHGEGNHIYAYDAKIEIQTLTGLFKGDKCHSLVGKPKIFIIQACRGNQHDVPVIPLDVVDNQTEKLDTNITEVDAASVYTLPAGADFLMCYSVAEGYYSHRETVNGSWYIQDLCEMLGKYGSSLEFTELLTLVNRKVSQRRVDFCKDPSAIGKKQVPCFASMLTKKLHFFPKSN
Put plainly: human caspase-6 inhibitors, dose response, biochemical, VEID-R110 fluorescence, cherry-pick (AID 720632).

The target of assay [7] is SWI/SNF-related matrix-associated actin-dependent regulator of chromatin subfamily A member 2 (Homo sapiens, UniProt P51531). In words: Luminescence-based cell-based high throughput dose response assay to identify activators of the function of SWI/SNF related, matrix associated, actin dependent regulator of chromatin, subfamily a, member 2 (SMARCA2, BRM). It counts as functional.
Sequence of SWI/SNF-related matrix-associated actin-dependent regulator of chromatin subfamily A member 2 (P51531 whole entry): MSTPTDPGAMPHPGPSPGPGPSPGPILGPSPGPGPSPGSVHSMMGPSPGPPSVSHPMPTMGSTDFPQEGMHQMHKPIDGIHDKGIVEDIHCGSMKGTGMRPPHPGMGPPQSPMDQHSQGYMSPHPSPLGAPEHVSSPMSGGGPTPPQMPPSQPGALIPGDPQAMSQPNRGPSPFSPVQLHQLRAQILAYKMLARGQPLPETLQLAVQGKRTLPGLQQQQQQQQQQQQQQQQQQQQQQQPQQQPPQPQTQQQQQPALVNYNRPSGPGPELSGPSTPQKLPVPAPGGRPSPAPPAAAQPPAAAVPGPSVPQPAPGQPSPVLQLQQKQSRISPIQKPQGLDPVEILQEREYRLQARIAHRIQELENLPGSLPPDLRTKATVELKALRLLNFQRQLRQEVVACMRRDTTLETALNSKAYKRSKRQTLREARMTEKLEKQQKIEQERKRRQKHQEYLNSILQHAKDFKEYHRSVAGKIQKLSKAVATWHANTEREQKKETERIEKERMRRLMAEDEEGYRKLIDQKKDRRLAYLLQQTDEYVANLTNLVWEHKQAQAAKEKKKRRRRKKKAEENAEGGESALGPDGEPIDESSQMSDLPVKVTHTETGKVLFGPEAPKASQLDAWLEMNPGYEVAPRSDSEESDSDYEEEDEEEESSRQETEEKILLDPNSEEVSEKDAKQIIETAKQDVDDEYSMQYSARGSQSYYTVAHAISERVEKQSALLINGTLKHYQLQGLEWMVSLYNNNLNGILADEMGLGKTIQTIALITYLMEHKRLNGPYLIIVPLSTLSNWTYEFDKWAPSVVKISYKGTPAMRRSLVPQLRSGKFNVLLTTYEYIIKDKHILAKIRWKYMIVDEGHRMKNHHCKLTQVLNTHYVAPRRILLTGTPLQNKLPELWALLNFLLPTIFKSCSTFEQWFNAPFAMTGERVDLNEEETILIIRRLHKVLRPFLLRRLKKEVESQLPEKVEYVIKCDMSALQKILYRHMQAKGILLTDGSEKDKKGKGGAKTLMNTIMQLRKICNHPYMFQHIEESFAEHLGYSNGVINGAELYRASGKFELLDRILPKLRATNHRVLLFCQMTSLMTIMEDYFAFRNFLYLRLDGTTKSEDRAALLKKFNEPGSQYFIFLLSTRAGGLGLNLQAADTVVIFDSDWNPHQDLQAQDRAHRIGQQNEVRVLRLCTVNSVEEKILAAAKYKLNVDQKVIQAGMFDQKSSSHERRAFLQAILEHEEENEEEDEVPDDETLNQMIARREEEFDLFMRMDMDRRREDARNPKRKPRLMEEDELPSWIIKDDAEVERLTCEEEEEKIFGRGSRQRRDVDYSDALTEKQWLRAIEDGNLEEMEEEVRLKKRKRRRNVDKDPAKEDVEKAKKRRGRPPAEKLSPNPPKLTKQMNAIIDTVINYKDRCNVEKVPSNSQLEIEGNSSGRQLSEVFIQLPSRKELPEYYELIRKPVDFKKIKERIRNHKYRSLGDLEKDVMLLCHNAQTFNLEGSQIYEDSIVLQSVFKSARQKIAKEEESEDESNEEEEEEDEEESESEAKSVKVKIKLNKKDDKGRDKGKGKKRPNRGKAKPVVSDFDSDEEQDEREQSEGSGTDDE

Assay [8] addresses T3, Carboxy-terminal domain RNA polymerase II polypeptide A small phosphatase 1 (Homo sapiens, UniProt Q9GZU7).
T3 sequence (Q9GZU7 whole entry): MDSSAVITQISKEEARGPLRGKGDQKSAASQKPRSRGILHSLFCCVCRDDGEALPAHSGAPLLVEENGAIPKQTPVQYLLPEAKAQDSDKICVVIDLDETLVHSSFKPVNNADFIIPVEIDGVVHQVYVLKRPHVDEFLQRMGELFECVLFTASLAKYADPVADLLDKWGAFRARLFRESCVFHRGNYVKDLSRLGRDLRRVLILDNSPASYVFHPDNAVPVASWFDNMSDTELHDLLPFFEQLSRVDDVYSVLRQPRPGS
Put plainly: inhibitors of CTDSP1, concentration-response testing, biochemical assay, absorbance-based, actives from ultra-high-throughput screening (AID 540297). It counts as functional.

Assay [9] can be described thus: Counterscreen for activators of the function of SWI/SNF related, matrix associated, actin dependent regulator of chromatin, subfamily a, member 2 (SMARCA2, BRM): Luminescence-based cell-based high throughput dose response assay to identify non-selective compounds using the VP16 reporter assay. It counts as functional. Background: The purpose of a counterscreen is to sort out artefacts and off-target activity.

For assay [10], the target named is ELAV-like protein 1 (Homo sapiens, UniProt Q15717). In words: Identify HuR specific inhibitors. It counts as functional.
Sequence of ELAV-like protein 1 (Q15717 whole entry, the tested form may be a part): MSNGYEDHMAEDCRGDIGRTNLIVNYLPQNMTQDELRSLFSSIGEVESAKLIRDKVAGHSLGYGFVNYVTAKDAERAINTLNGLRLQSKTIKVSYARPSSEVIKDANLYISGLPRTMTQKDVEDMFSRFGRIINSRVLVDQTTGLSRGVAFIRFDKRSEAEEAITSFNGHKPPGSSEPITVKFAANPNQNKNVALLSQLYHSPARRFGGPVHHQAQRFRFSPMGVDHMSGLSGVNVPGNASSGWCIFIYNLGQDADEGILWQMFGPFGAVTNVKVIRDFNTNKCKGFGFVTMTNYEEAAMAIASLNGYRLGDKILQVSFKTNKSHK
Assay [11] is described as follows: HIV Env cell-cell fusion inhibitors, dose response, HIV entry, plate reader, dry powder (AID 687023). It counts as functional, cell-based.
Assay [12] is described as follows: off-target signal loss in HeLa-CEM21 co-culture – HeLa F-luc CTL cells, cherry-picked, counter-screen for HIV-1 Env fusion inhibitor project, dose response (AID 652040).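 Note: potency for signal decrease marking cytotoxic or nonspecific inhibition.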 The format is functional, cell-based.
Assay [13] is described as follows: inhibitors of HIV Env-driven cell fusion, dose response, cherry-pick (AID 652057). The format is functional, cell-based.
The nature of assay [14]: CEM21 cell cytotoxicity, dose response, cytotoxicity control, plate reader, dry powder (AID 687026). The format is functional, cell-based.
The nature of assay [15]: inhibitors of clade B AD8 Env fusion, dose response, cell-based, cherry-pick (AID 652062).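 Note: luciferase signal from cell-cell fusion driven by HIV-1 clade B AD8 Env; potency is for inhibitors of fusion seen as a drop in luminescence.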 It counts as functional.
The nature of assay [16]: ZM109 Env clade C HIV-1 fusion inhibitors, dose response, HeLa effector, CEM target cells, luciferase, cherry-pick (AID 652058). It counts as functional, cell-based.
Assay [17] deals with T1, Oxysterols receptor LXR-beta. The format is functional, cell-based.
A short description of assay [18]: inhibitors of intracellular T. cruzi replication, confirmation, NIH3T3 host cells, beta-gal luminescence (AID 2044).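 Note: intracellular parasites grown in NIH/3T3 mouse fibroblasts as host cells; luminescent beta-galactosidase reporter signal from transgenic T. cruzi replicating inside host cells; inhibitors lower the luminescence signal.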 The format is functional, cell-based.
Assay [19] in a line: cells.
A short description of assay [20]: cytotoxicity toward NIH3T3 fibroblasts, dose response, counter-screen, cell-based, ATP luminescence, mouse fibroblasts (AID 2010).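 Note: cells exposed to compound for about 90 hours before reading.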 It counts as functional.
Assay [21] is described as follows: IGROV1 ovarian cancer cell cytotoxicity, dose response, PAX8 inhibitor project, plate reader, dry powder samples (AID 743043). The format is functional, cell-based. The settings on record: IGROV-1.
Assay [22] is described as follows: PAX2 cell-based inhibition, dose response, selectivity assay for PAX8 inhibitor project, plate reader, dry powder samples (AID 743048).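 Note: HEK293 cells carrying a WT1 promoter luciferase reporter driven by expressed Pax2; potency is for inhibition of Pax2 driven reporter signal.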 It counts as functional.
Assay [23] in a line: cytotoxicity dependent on PAX8, dose response, cell-based, plate reader, dry powder (AID 743049). The format is functional.
Assay [24] in a line: NIH:OVCAR-3 ovarian cancer cell cytotoxicity, dose response, PAX8 inhibitor project, plate reader, dry powder samples (AID 743044). The format is functional, cell-based.
Assay [25] in a line: PAX5 activity inhibitors, dose response, selectivity assay for PAX8 inhibitor project, cell-based, plate reader, dry powder samples (AID 743047).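 Note: HEK293 cells carrying a Pax5 driven CD19 promoter luciferase reporter; potency of inhibitors that lower reporter luminescence.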 The format is functional.
Assay [26] in a line: cytotoxicity in OVCAR8 ovarian cancer cells, dose response, PAX8 project, cell-based, plate reader, dry powder samples (AID 743197). The settings on record: OVCAR-8. The format is functional.
Assay [27] in a line: cytotoxicity in COV434 cells, dose response, cytotoxicity control for PAX8 inhibitor project, cell-based, plate reader, dry powder, SA7 (AID 743145). It counts as functional.
Assay [28] addresses Paired box protein Pax-8 (Homo sapiens, UniProt Q06710). In words: inhibitors of PAX8-driven TPO luciferase reporter, dose response, RMG-I cells, cherry-pick (AID 687027).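 Note: luciferase reporter driven by Pax8 target thyroperoxidase promoter measured by SteadyGlo luminescence.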 The format is functional, cell-based.

The source made the active and inactive calls.

The term IC50 denotes the concentration that gives 50% inhibition. A word on the AC50: it is the concentration at which the activity in the assay is half-maximal.

Sequence of Kallikrein-7 (P49862 whole entry): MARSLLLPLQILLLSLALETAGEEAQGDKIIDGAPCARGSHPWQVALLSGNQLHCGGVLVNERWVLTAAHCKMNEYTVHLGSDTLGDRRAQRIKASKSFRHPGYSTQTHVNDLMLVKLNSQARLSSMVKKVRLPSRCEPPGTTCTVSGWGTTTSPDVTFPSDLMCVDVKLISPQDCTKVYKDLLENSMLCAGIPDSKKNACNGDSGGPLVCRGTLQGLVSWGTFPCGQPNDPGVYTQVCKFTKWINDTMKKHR
Sequence of Protein Tat (P04608 whole entry): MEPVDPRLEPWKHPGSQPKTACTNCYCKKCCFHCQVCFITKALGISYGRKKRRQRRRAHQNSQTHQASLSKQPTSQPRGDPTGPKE
Sequence of Paired box protein Pax-8 (Q06710 whole entry): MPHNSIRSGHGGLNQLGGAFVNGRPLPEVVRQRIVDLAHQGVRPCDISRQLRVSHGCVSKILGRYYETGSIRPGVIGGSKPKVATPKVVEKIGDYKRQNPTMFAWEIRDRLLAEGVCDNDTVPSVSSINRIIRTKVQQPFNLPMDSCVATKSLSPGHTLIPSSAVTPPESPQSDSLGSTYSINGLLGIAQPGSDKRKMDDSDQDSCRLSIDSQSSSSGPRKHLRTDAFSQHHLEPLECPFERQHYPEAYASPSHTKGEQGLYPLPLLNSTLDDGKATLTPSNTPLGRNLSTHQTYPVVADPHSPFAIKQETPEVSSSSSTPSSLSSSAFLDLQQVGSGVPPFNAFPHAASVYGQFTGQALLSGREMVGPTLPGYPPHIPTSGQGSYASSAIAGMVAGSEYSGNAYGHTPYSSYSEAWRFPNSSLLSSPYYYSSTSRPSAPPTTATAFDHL

Take `CCCCn1c(N)c(N(CCOC)C(=O)c2cc(-c3ccco3)nc3ccccc23)c(=O)[nH]c1=O`: the IC50 in assay [1] is > 100 µM (active).
For `Cc1nn(-c2ccccn2)c2nc(-c3cccs3)cc(C(=O)N3CCOCC3)c12`, the EC50 in assay [2] is > 69.5 µM (inactive).
In the case of `Cc1c(C(=O)Nc2ccccn2)oc2ccccc12`, the EC50 was > 67.5 µM (inactive) in assay [3] and 901 nM (active) in assay [5]. For the same molecule, the IC50 in assay [4] is > 67.5 µM (inactive).
As to `CC#CC#Cc1cccc(=O)o1`, the AC50 in [6] is 9.68 µM (active). For the same molecule, the EC50 in [7] and in assay [9] was > 91 µM (inactive) in each case. The figures for the IC50 in assay [8] and in assay [10] were 16.5 µM (active) and 44.4 µM (active), respectively.
As for `O=C(Nc1ccc2c(c1)CCC2)C1CCN(c2c3c(nc4ncnn24)CCC3)CC1`, the AC50 in assay [11] was 5.08 µM (active); in assay [12] it was 41.2 µM (active); in [13], 9.44 µM (active); in [14], > 70 µM (inactive); in assay [15] it was 3.88 µM (active); in assay [16], 1.4 µM (active).
In the case of `NC(=S)N/N=C/c1ccc(-c2ccc(Cl)c(Cl)c2)o1`, the EC50 in assay [17] is > 67.5 µM (inactive); in [18], 983 nM (active); in assay [19] it was > 67.5 µM (inactive); in assay [20] it was > 60 µM (not active).
In the case of `O=C(C[C@H]1CC[C@H]2[C@@H](COC[C@@H](O)CN2S(=O)(=O)c2cccc(Cl)c2)O1)Nc1ccc(-c2ccccc2)cc1`, the AC50 in assay [21] is 31.2 µM (active); in assay [22] it was 8.55 µM (active); in assay [23] it was 20.3 µM (active); in [24], 43 µM (active); in assay [25], 3.85 µM (active); in assay [26], 27.7 µM (active). The concentration at half-maximal activity (AC50) in assay [27] is 37.9 µM (active); in [28], 8.28 µM (active).

For the origin of these results see ChEMBL document CHEMBL1201862, “PubChem BioAssay data set” (2004).
